{"source": "patent EP2646421B1", "about": "“7-NITRO-5-PHENYL-1-(PYRROLIDIN-1-YLMETHYL)-1H-BENZO[E][1,4]DIAZEPIN-2(3H)-ONE AND OTHER BENZODIAZEPINE DERIVATIVES” (Pignataro, Giuseppe, priority 2010, dated 2012)", "key": {"NCX1": {"biological_target": "T1, NCX1 (Canis lupus familiaris, UniProt P23685)", "T1 construct": "expressed in transfected cells", "T1 sequence (P23685 33-970)": "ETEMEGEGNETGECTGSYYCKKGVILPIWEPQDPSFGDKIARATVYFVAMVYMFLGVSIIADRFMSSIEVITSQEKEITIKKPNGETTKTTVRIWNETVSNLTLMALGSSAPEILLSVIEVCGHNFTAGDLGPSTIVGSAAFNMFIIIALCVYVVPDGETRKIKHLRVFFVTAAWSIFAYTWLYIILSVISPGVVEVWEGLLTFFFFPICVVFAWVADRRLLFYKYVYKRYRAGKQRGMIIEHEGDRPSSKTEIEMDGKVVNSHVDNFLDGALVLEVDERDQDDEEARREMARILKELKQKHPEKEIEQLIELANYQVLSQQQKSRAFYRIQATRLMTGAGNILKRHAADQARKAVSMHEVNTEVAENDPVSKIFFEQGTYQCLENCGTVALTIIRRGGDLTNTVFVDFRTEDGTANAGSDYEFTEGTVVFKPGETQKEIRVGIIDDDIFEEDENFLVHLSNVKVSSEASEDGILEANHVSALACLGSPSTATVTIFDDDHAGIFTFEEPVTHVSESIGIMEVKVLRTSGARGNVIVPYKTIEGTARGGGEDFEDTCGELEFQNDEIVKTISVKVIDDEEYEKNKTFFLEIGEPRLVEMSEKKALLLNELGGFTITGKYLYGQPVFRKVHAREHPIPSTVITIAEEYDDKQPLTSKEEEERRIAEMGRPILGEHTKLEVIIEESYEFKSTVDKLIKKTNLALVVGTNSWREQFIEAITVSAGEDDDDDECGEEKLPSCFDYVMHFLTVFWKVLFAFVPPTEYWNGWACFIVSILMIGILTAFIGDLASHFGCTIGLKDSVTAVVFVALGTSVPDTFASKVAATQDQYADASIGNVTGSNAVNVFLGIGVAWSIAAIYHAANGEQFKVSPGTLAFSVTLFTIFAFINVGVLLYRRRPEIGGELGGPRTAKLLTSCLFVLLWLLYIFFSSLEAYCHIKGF", "test": "45Ca2+ radiotracer fluxes (efflux/influx) in BHK-NCX1 cells", "format": "cell-based", "procedure": "(§1) The activity of NCX was established by means of three different subclones of baby hamsted kidney (BHK) cells that were stably transfected with one of each NCX isoforms, named BHK-NCX1, BHK-NCX2 and BHK-NCX3. These cell lines were grown on plastic dishes in a mix of DMEM and Ham's F12 media (1:1) (Gibco, Invitrogen, MI, Italy) supplemented with 5% fetal bovine serum, 100 U/ml penicillin, and 100 µg/ml streptomycin (Sigma, St. Louis, Missouri, USA). Cells were cultured in a humidified 5% CO2 atmosphere and at the temperature of 37°C.\n(§2) The activity of the Na^+/Ca^2+ exchanger was measured by means of ^45Ca^2+ radiotracer variations in the cytoplasm of cells exposed to a protocol stimulating the forward or the reverse mode of the antiporter. The BHK cells expressing each mutated or non-mutated NCX isoform were cultured in 12-well dishes and incubated in 145 mM NaCl for 10 minutes and then in a medium containing only 145 mM N-Methyl D-glucamine (NMDG) and 10 µM of ^45Ca^2+. This rapid substitution of the medium from a high level of Na^+ to another one without Na^+ allow the ^45Ca^2+ influx (reverse mode). Before the medium substitution cells was incubated with 1 mM ouabain, a Na^+/K^+ pump inhibitor, and 10 µM monensin, a ionophore for extracellular Na^+. After 30 seconds incubation, cells were washed with an ice-cold solution containing 2 mM La^3+ to stop ^45Ca^2+ uptake. The medium was removed and cells were subsequently lysed with 0.1 N NaOH and aliquots were taken to determine radioactivity and protein content.\n(§3) In order to measure NCX activity in the forward mode, cells were firstly loaded with ^45Ca^2+ and subsequently exposed to a chemical protocol to stimulate the efflux of the radiotracer in the extracellular medium. In particular, cells were loaded with ^45Ca^2+ by using a solution containing 1 µM ionomycin, 145 mM Na^+ and ^45Ca^2+. Next, cells were exposed to a Ca^2+-free solution containing 2 mM EGTA. One µM thapsigargin, a Ca^2+-ATPase inhibitor, was present in both solutions in order to prevent ^45Ca^2+ influx in intracellular organelles. After 60 second, cells were lysed with […] NaOH and aliquots were taken to determine cytoplasmatic radioactivity.\nCells were incubated for 30 minutes with different neurounina-1 concentrations."}, "NCX3": {"biological_target": "T2, NCX3 (Rattus norvegicus, UniProt P70549)", "T2 construct": "expressed in transfected cells", "T2 sequence (P70549 31-927)": "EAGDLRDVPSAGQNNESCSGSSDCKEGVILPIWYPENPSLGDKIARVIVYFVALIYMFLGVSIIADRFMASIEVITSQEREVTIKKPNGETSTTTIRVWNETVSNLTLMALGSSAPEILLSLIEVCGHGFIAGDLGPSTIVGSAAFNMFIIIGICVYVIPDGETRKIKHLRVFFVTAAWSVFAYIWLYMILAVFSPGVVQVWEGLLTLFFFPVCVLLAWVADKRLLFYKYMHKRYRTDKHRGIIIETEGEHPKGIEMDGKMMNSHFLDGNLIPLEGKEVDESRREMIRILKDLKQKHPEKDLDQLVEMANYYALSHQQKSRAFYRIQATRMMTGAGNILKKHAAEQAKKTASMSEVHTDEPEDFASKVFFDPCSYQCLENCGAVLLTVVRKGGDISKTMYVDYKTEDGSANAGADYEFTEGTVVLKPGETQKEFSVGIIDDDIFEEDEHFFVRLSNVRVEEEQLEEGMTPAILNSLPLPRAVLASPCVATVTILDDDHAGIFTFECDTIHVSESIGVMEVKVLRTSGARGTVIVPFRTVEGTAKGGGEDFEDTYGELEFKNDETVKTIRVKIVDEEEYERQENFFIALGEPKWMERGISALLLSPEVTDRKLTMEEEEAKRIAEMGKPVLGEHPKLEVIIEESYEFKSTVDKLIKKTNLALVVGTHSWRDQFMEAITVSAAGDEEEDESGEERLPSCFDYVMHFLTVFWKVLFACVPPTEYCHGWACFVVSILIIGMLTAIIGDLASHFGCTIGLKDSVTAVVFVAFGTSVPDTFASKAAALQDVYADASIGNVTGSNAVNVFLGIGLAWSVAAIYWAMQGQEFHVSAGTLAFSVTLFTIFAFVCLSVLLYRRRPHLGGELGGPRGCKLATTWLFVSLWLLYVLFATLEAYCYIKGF", "test": "45Ca2+ radiotracer fluxes (efflux/influx) in BHK-NCX3 cells", "format": "cell-based", "procedure": "as §1, §2\nas §3, with “One µM thapsigargin, a Ca^2+-ATPase inhibitor, was present in both solutions in order to prevent ^45Ca^2+ influx in intracellular organelles.” left out, “radioactivity. […]” for “radioactivity.”"}, "NCX2": {"biological_target": "T3, NCX2 (Rattus norvegicus, UniProt P48768)", "T3 construct": "expressed in transfected cells", "T3 sequence (P48768 21-921)": "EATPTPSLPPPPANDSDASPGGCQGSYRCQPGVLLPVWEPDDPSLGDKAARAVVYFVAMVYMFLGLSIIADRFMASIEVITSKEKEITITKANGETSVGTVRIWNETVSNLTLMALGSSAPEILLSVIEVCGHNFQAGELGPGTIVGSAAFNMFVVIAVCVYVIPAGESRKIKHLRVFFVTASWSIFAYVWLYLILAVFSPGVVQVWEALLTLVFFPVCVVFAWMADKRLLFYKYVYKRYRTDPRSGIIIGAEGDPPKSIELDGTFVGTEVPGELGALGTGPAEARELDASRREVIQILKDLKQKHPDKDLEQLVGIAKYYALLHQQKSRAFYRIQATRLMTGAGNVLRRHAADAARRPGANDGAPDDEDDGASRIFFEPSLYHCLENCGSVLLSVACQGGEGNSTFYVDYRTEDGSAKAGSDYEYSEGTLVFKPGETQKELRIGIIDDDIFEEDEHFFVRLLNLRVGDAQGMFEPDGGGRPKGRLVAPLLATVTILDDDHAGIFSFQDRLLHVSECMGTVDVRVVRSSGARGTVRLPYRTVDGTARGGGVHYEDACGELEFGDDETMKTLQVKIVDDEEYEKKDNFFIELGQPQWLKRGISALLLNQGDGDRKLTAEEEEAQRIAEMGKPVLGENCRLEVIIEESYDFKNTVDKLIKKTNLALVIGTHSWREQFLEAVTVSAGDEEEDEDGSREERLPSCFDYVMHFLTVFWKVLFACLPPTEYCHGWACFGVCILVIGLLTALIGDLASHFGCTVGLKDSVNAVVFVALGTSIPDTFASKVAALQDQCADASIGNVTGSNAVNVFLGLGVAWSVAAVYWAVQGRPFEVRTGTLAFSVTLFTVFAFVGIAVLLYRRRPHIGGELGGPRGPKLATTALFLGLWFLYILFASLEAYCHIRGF", "test": "Fura-2 AM single-cell microfluorimetry, BHK-NCX2 cells", "format": "cell-based", "conditions": "10 nM (Fig. 2)", "procedure": "as §1\nNCX activity has been measured considering the variation of intracellular concentrations of Ca^2+ ions ([Ca^2+]i) due to its activation by means of single-cell microfluorimetry. […] In both cases, this probe will produce an emission at 510 nm; the ratio between the two emission relative to 340 and 380 excitation allow to quantify [Ca^2+]i in the time considering the calibration curve previously performed. […]\nBriefly, BHK cells wild type and/or BHK trasnsfected with NCX mutants, grown on glass coverslips, were loaded with Fura-2 acetoxymethyl ester (Fura-2AM) (10 µM) for 30 minutes at 37°C in normal Krebs solution containing the following (in mM): 5.5 KCI, 160 NaCl, 1.2 MgCl2, 1.5 CaCl2, 10 glucose, and 10 Hepes-NaOH, pH 7.4. […] Fura-2 fluorescence intensity was measured every 3 seconds. […]"}, "BHK cells [1]": {"tested_on": "BHK cells", "test": "Mitochondrial dehydrogenase activity (MTT)", "format": "cell-based, hamster"}, "BHK cells [2]": {"tested_on": "BHK cells", "test": "Cell viability by fluorescein diacetate / propidium iodide staining", "format": "cell-based, hamster", "conditions": "10 µM, 24 hours", "excerpt": "Fluorescein diacetate (FDA) is an apolar ester that could cross plasmamembrane. […] The polar compound propidium-iodide (PI) can not cross an intact plasmamembrane, so this is a good marker of necrotic cells. Once PI enters into the cell, this compound interact with nuclear DNA and give a fluorescent red light. Consequently, in the same cellular population, it is possible to discriminate live cells from dead cells, because the last group are PI-positive. In PI/PDA experiments, BHK cells were firstly treated with 10 µM neurounina-1 for 24 hours and then incubated for 3 minutes, at 22°C, in a PBS solution containing fluorescein diacetate (FDA; Sigma) and propidium iodide (PI, Calbiochem, San Diego, CA, U.S.A.), at the concentrations of di 36 µM e 7 µM, respectively. At the end of the incubation, cells were washed with PBS and observed at the microscope."}, "[3]": {"conditions": "45Ca2+ radiotracer, forward mode"}, "[4]": {"conditions": "45Ca2+ radiotracer, reverse mode"}, "[5]": {"conditions": "forward and reverse mode, patch clamp, Fura-2 microfluorimetry and 45Ca2+ fluxes (summary)"}}, "note": "Entries after “also recorded” stand apart in the source; their conditions may differ.", "data": [{"smiles": "O=C1CN=C(c2ccccc2)c2cc([N+](=O)[O-])ccc2N1CN1CCCC1", "note": "[neurounina-1, 7-nitro-5-phenyl-1-(pyrrolidin-1-ylmethyl)-1H-benzo[e][1,4]diazepin-2(3H)-one]", "values": [{"measurement": "increase of forward mode of NCX1 activity", "setting": "NCX1; [3]", "value": 70, "unit": "%"}, {"measurement": "increase of reverse mode NCX1 activity", "setting": "NCX1; [4]", "value": 40, "unit": "%"}, {"measurement": "EC50", "setting": "NCX1; EC50 NCX1, reverse mode, 45Ca2+ radiotracer, reverse mode", "value": 1.1, "unit": "nM"}, {"measurement": "EC50", "setting": "NCX1; EC50 for NCX1, forward mode, 45Ca2+ radiotracer, forward mode", "value": 1.4, "unit": "nM"}, {"measurement": "EC50", "setting": "NCX1; EC50 su NCX1, from the functional assays (summary)", "value": "1 to 2", "unit": "nM"}, {"measurement": "NCX1 activity", "setting": "NCX1; [5]", "value": "increases, in a dose-dependent manner"}, {"measurement": "activity of NCX3, forward mode", "setting": "NCX3; [3]", "value": "did not significantly affect"}, {"measurement": "activity of NCX3, reverse mode", "setting": "NCX3; [4]", "value": "did not affect"}, {"measurement": "NCX3 activity", "setting": "NCX3; [5]", "value": "did not exert any effect"}, {"measurement": "increased reverse mode activity of NCX2", "setting": "NCX2", "value": 40, "unit": "%"}, {"measurement": "non-toxic concentration relative to EC50", "setting": "BHK cells [1]; 10 µM versus EC50", "value": "~10.000", "unit": "times"}, {"measurement": "mitochondrial activity", "setting": "BHK cells [1]; 10 µM, 24 hours, BHK cells", "value": "did not show any toxic effect; also recorded: did not affect"}, {"measurement": "cell viability", "setting": "BHK cells [2]", "value": "did not show any toxic effect; also recorded: did not affect"}]}]}
